The values below come from paper PMC10138389, “Study of Lipophilicity and ADME Properties of 1,9-Diazaphenothiazines with Anticancer Action” (International Journal of Molecular Sciences, 2023).

The conditions of data set [1]: cited from earlier work; for logPTLC, 1,6-Diaza: 1,6-diazaphenothiazines; for logPTLC, 1,8-Diaza: 1,8-diazaphenothiazines; for logPTLC, 2,7-Diaza: 2,7-diazaphenothiazines; for logPTLC, 3,6-Diaza: 3,6-diazaphenothiazines.
The next data set deals with melanoma C-32. On the set-up: method as in PMID 31307242, PMID 33807874. The conditions noted are these: melanoma C-32 cell line; cited from earlier work.
For the next data set, the system named is glioblastoma SNB-19. On the set-up: method as in PMID 31307242, PMID 33807874. The following applies: cited from earlier work.
The nature of data set [2]: experimental lipophilicity by RP-TLC (RM0, logPTLC). In kind it is physicochemical. The conditions noted are these: for logPTLC, 1,9-Diaza: 1,9-diazaphenothiazines, comparison table; for −b (slope of RM = RM0 + bC) / RM0 (relative lipophilicity parameter): RP-TLC; for −b (slope of RM = RM0 + bC): RP 18F254S, acetone/TRIS buffer pH 7.4; for RM0 (relative lipophilicity parameter): extrapolation to zero acetone concentration, TRIS buffer pH 7.4; for chromatographic logP: pH 7.4, RM0 converted with the calibration curve of standards I–V. Here is the method:
In the next stage, experimental measurements of the lipophilicity coefficient were performed with the use of reversed-phase thin-layer chromatography RP-TLC.
The experimental RP-TLC method provided the RM retention parameter (calculated from RF value measurements) using the following equation:RM = log (1/RF − 1)(1)
Then a calibration curve was created using the same measuring conditions. […] The calibration curve was used to convert the values of the relative lipophilicity parameter RM0 of the tested hybrids into the value of the absolute lipophilicity parameter logPTLC.
The equation of the standard curve with which it was possible to convert the relative lipophilicity parameter RM0 into the absolute parameter logPTLC is presented in Figure 2.
The RP-TLC method was used to determine the experimental lipophilicity according to the literature. Modified silica gel RP 18F254S (Merck) was used as the stationary phase and a mixture of tris(hydroxymethyl)aminomethane (TRIS) (0.2 M, buffer pH = 7.4) with acetone as the mobile phase with the range of concentrations from 40 to 70% (v/v) in 5% increments. […] Spots were observed under UV light at λ = 254 nm. Each measurement was performed in triplicate and then the RF values were calculated.

The test system of a further data set is breast cancer MDA-MB-231. Details: method as in PMID 31307242, PMID 33807874. The following applies: cited from earlier work.
Data set [3] relates to H3, TP53, CDKN1A, BCL-2, and BAX genes. Details: method as in PMID 33807874. The conditions noted are these: RT-QPCR, tested cell lines; cited from earlier work.
The test system of another data set is SNB-19 cells. On the set-up: method as in PMID 33807874. The following applies: Annexin V; cited from earlier work.
For data set [4] the following is noted: standards; cited from earlier work.

Consider `c1cnc2c(c1)Nc1ncccc1S2` [1,6-Diaza A, 10H-1,6-diazaphenothiazine], for which the “logPTLC, 1,6-Diaza” value in data set [1] was 2.316.

Regarding `C=CCN1c2cccnc2Sc2cccnc21` [1,6-Diaza B], the “logPTLC, 1,6-Diaza” value in data set [1] is recorded as 3.008.

As for `C#CCN1c2cccnc2Sc2cccnc21` [1,6-Diaza C], the “logPTLC, 1,6-Diaza” value in data set [1] is listed as 1.574.

As for `CN(C)CCCN1c2cccnc2Sc2cccnc21` [1,6-Diaza D], the “logPTLC, 1,6-Diaza” value in data set [1] is given as 1.156.

As to `c1cnc2c(c1)Sc1ccncc1N2` [1,8-Diaza A], in data set [1], the “logPTLC, 1,8-Diaza” value was 1.759.

On to `C=CCN1c2cnccc2Sc2cccnc21` [1,8-Diaza B], for which, in data set [1], the “logPTLC, 1,8-Diaza” value is recorded as 2.313.

In the case of `C#CCN1c2cnccc2Sc2cccnc21` [1,8-Diaza C], the “logPTLC, 1,8-Diaza” value in data set [1] is 2.186.

On to `CN(C)CCCN1c2cnccc2Sc2cccnc21` [1,8-Diaza D], for which the “logPTLC, 1,8-Diaza” value in data set [1] is 1.832.

Regarding `c1cc2c(cn1)Nc1ccncc1S2` [2,7-Diaza A], the “logPTLC, 2,7-Diaza” value in data set [1] is 1.540.

As to `C=CCN1c2ccncc2Sc2ccncc21` [2,7-Diaza B], the “logPTLC, 2,7-Diaza” value in data set [1] is recorded as 1.940.

On to `C#CCN1c2ccncc2Sc2ccncc21` [2,7-Diaza C], for which the “logPTLC, 2,7-Diaza” value in data set [1] was 1.654.

Take `CN(C)CCCN1c2ccncc2Sc2ccncc21` [2,7-Diaza D]: the “logPTLC, 2,7-Diaza” value in data set [1] was 1.940.

Regarding `c1cnc2c(c1)Nc1ccncc1S2` [3,6-Diaza A, 10H-3,6-diazaphenothiazine], the “logPTLC, 3,6-Diaza” value in data set [1] was 0.952.

For the compound `C=CCN1c2ccncc2Sc2ncccc21` [3,6-Diaza B], in data set [1], the “logPTLC, 3,6-Diaza” value was 1.329.

As for `C#CCN1c2ccncc2Sc2ncccc21` [3,6-Diaza C], in data set [1], the “logPTLC, 3,6-Diaza” value was 1.342.

For the compound `CN(C)CCCN1c2ccncc2Sc2ncccc21` [3,6-Diaza D], the “logPTLC, 3,6-Diaza” value in data set [1] is 1.404.

One may read the IC50 as the midpoint of a concentration-inhibition curve. By chromatographic logP is commonly meant lipophilicity estimated from chromatographic retention. As to `c1cnc2c(c1)Sc1cccnc1N2` [Compound 1, 10H-1,9-diazaphenothiazine], the IC50 in the data set on melanoma C-32 is 3.83 µM. Further, the “anticancer activity against other lines” value in the data set with glioblastoma SNB-19 is “inactive”. In addition, in data set [2], the “logPTLC, 1,9-Diaza” value is reported as 1.476; the “−b (slope of RM = RM0 + bC)” value was 0.0205; the “RM0 (relative lipophilicity parameter)” value was 1.1970; the chromatographic logP came out at 1.48. Moreover, the “anticancer activity against other lines” value in the data set with breast cancer MDA-MB-231 was “inactive”.

In the case of `CN1c2ncccc2Sc2cccnc21` [Compound 2], in data set [2], the “−b (slope of RM = RM0 + bC)” value amounted to 0.0192, the “RM0 (relative lipophilicity parameter)” value is 1.3850 and the chromatographic logP is 1.66.

`C=CCN1c2ncccc2Sc2cccnc21` [Compound 3]: in data set [2], the “logPTLC, 1,9-Diaza” value amounted to 1.682; the “−b (slope of RM = RM0 + bC)” value was determined as 0.0278; the “RM0 (relative lipophilicity parameter)” value is recorded as 1.4052; the chromatographic logP stood at 1.68.

With `C#CCN1c2ncccc2Sc2cccnc21` [Compound 4], in data set [2], the “logPTLC, 1,9-Diaza” value came out at 1.747; the “−b (slope of RM = RM0 + bC)” value amounted to 0.0195; the “RM0 (relative lipophilicity parameter)” value was 1.4720; the chromatographic logP is 1.75. In addition, in data set [3], the “expression of the CDKN1A gene” value is on record as “enhanced”, the “expression of the H3 gene” value was “reduced” and the “expression of the TP53 gene” value is “reduced”. Besides, the “early and late cell apoptosis populations” value with SNB-19 cells was “slight increase”.

Regarding `c1ccc(CN2c3ncccc3Sc3cccnc32)cc1` [Compound 5, 10-benzyl-1,9-diazaphenothiazine], in data set [2], the “−b (slope of RM = RM0 + bC)” value came to 0.0205, the “RM0 (relative lipophilicity parameter)” value is listed as 1.7877 and the chromatographic logP is 2.06.

Take `CN(C)CCCN1c2ncccc2Sc2cccnc21` [Compound 6]: in data set [2], the “logPTLC, 1,9-Diaza” value is given as 2.080; the “−b (slope of RM = RM0 + bC)” value came out at 0.0170; the “RM0 (relative lipophilicity parameter)” value is reported as 1.8096; the chromatographic logP came out at 2.08.

As for `CCN(CC)CCN1c2ncccc2Sc2cccnc21` [Compound 7], in data set [2], the “−b (slope of RM = RM0 + bC)” value came to 0.0180, the “RM0 (relative lipophilicity parameter)” value is given as 1.7934 and the chromatographic logP worked out at 2.06. Besides, in data set [3], the “expression of the CDKN1A gene” value is “enhanced”, the “expression of the H3 gene” value is “reduced” and the “expression of the TP53 gene” value was “reduced”. Also, the “early and late cell apoptosis populations” value in the data set on SNB-19 cells was “slight increase”.

Take `CC(CN(C)C)CN1c2ncccc2Sc2cccnc21` (stereo not shown) [Compound 8]: in data set [2], the “−b (slope of RM = RM0 + bC)” value is reported as 0.0228, the “RM0 (relative lipophilicity parameter)” value was 1.8961 and the chromatographic logP was found to be 2.17.

For `c1cnc2c(c1)Sc1cccnc1N2CCN1CCCC1` [Compound 9], in data set [2], the “−b (slope of RM = RM0 + bC)” value was 0.0123, the “RM0 (relative lipophilicity parameter)” value is recorded as 1.9434 and the chromatographic logP amounted to 2.21.

Turning to `c1cnc2c(c1)Sc1cccnc1N2CCN1CCCCC1` [Compound 10], in data set [2], the “−b (slope of RM = RM0 + bC)” value is reported as 0.0214, the “RM0 (relative lipophilicity parameter)” value is on record as 1.9781 and the chromatographic logP came out at 2.25.

As to `CN1CCCCC1CCN1c2ncccc2Sc2cccnc21` (stereo not shown) [Compound 11], in data set [2], the “−b (slope of RM = RM0 + bC)” value was 0.0211, the “RM0 (relative lipophilicity parameter)” value is recorded as 1.9988 and the chromatographic logP was found to be 2.27.

For `CC(=O)Nc1ccccc1` [I, acetanilide, reference compound], in data set [2], the “−b (slope of RM = RM0 + bC)” value amounted to 0.018 and the “RM0 (relative lipophilicity parameter)” value is listed as 1.011. The “log P TLC (logPlit.)” value in data set [4] was 1.21 [22].

As for `CC(=O)c1ccccc1` [II, acetophenone, reference compound], the “−b (slope of RM = RM0 + bC)” value in data set [2] stood at 0.019.

With `CC(=O)c1ccc(Br)cc1` [III, 4-bromoacetophenone, reference compound], in data set [2], the “−b (slope of RM = RM0 + bC)” value is 0.033 and the “RM0 (relative lipophilicity parameter)” value is 2.281. Moreover, the “log P TLC (logPlit.)” value in data set [4] is 2.43 [23].

On to `O=C(c1ccccc1)c1ccccc1` [IV, benzophenone, reference compound], for which the “−b (slope of RM = RM0 + bC)” value in data set [2] amounted to 0.034.

`c1ccc2cc3ccccc3cc2c1` [V, anthracene, reference compound]: in data set [2], the “−b (slope of RM = RM0 + bC)” value is recorded as 0.044 and the “RM0 (relative lipophilicity parameter)” value was 3.588. In addition, the “log P TLC (logPlit.)” value in data set [4] was 5.53 [22].

With `N.N.[Cl][Pt][Cl]` [cisplatin, reference compound], the IC50 with melanoma C-32 was 13.2 µM.
